Measured values from patent US20240197742A1, “Therapeutic Combinations of a CD19 Inhibitor and a BTK Inhibitor” (Acerta Pharma B.V., priority 2015, published 2024).
Entries after “also recorded” stand apart in the source; their conditions may differ.

How the values were obtained:
B cell receptor = experiment: Whole blood potency: CD69 on CD19+ B cells after anti-human IgD; type: cell-based; settings: blood from four healthy donors, 2 hours with compound, anti-human IgD 10 μg/mL 18 hours, read-out: EC50, CD69 on gated CD19+ B cells in whole blood
Raji = experiment: ADCC chromium release assay, Raji targets; type: cell-based, human; settings: 1 μM; all rituximab concentrations; healthy donor NK cells
Protocol: All in vitro experiments were performed in triplicate.
ADCC assays were performed as follows. Briefly, target cells (Raji or primary CLL) were labeled by incubation at 37° C. with 100 μCi ^51Cr for 4 hours prior to co-culture with NK cells. Cells were washed, enumerated, and then added in triplicate to prepared 96-well plates containing treated NK cells at an effector:target (E:T) ratio of 25:1. […] Cultures were incubated at 37° C. for 4 hours, and then centrifuged. Supernatants were harvested and ^51Cr release was measured by liquid scintillation counting. All experiments were performed in triplicate.

CD8+ T cells [1] = experiment: Cytotoxic T cell (CTL) assay; type: cell-based; settings: 500 nM, relative to vehicle
Protocol: Without being bound by any theory, CD8^+ T cells have two primary effector functions: (1) produce large amounts of IFN-γ (which activates macrophages), and (2) cytolytic activity. […] The targets were B lymphoblasts from lipopolysaccharide (LPS) treated cultures. The assay was performed by incubating different ratios of effectors:targets for 4 hours.

CD8+ T cells [2] = experiment: CD8+ T cell viability; type: cell-based; settings: anti-TCR and anti-CD28 coated wells, neutral conditions, 4 days
Protocol: Total T cells were plated on anti-TCR and anti-CD28 coated wells in the presence of both BTK inhibitors. Neutral culture conditions were used that will not polarize T cells to a helper lineage. […] Statistical significance was calculated using the Mann Whitney T-test.

Th17 cells = experiment: Th17 development from enriched CD4+ T cells; type: cell-based; settings: anti-TCRβ plus anti-CD28, skewing cytokines, 4 days
Protocol: (§1) Enriched CD4^+ T cells are plated on 24-well culture dishes that have been precoated 2 hr with 250 μL anti-TCRβ (0.5 μg/mL) plus anti-CD28 (5 μg/mL) at 37° C. in PBS. The cells are then supplemented with media containing BTK inhibitors along with the skewing cytokines as indicated in the following. The Th17 and Treg cultures are grown for 4 days before analysis. The cells are maintained for an additional 3 days with skewing cytokines (Th17; 20 ng/mL IL-6, 0.5 ng/mL TGF-β, 5 μg/mL IL-4, 5 μg/mL IFN-γ and Treg; 0.5 ng/mL TGF-β, 5 μg/mL IL-4, 5 μg/mL IFN-γ) and are supplemented with IL2 as a growth factor.

[3] = within the tested dose range (through 840 mg); cited from earlier work
regulatory T cell (Treg) = experiment: Treg development from enriched CD4+ T cells; type: cell-based; settings: anti-TCRβ plus anti-CD28, skewing cytokines, 4 days
Protocol: as §1

GPVI = GPVI platelet aggregation (convulxin); type: cell-based, human
Protocol: GPVI platelet aggregation was measured for Formula (2) and Formula (10) (ibrutinib). Blood was obtained from untreated humans, and platelets were purified from […] by centrifugation. Cells were resuspended to a final concentration of 350,000/μL in buffer containing 145 mmol/L NaCl, 10 mmol/L HEPES, 0.5 mmol/L Na2HPO4, 5 mmol/L KCl, 2 mmol/L MgCl2, 1 mmol/L CaCl2, and 0.1% glucose, at pH 7.4. Stock solutions of Convulxin (CVX) GPVI were prepared on the day of experimentation and added to platelet suspensions 5 minutes (37° C., 1200 rpm) before the induction of aggregation. Aggregation was assessed with a Chronolog Lumi-Aggregometer (model 540 VS; Chronolog, Havertown, PA) and permitted to proceed for 6 minutes after the addition of agonist. The results are reported as maximum percent change in light transmittance from baseline with platelet buffer used as a reference.
In FIG. 72, the results of CVX-induced (250 ng/mL) human platelet aggregation results before and 15 minutes after administration of the BTK inhibitors to 6 healthy individuals are shown.

Compound | EC50 (B cell receptor) [nM] | cell lysis, Raji (Raji) [%] | CD8+ T cell function as measured by % cytotoxicity (CD8+ T cells [1]; 4 days CTL generation) | CD8+ T cell function as measured by IFN-γ level (CD8+ T cells [1]) | effect on CD8+ T cell viability (CD8+ T cells [2]) | effect on Th17 cells / Th17 development (Th17 cells) | effect on Th17 cells / Th17 development (Th17 cells; listed as ibrutinib) | maximum tolerated dose (MTD) [3] | effect on Treg development (regulatory T cell (Treg)) | effect on Treg development (regulatory T cell (Treg); listed as ibrutinib) | effect on GPVI platelet aggregation (GPVI; CVX-induced human platelet aggregation) | IC50 (GPVI; purified human platelets, convulxin (CVX)) [nM]
C=CC(=O)N1CCC[C@@H](n2nc(-c3ccc(Oc4ccccc4)cc3)c3c(N)ncnc32)C1 [Formula (10), 1-[(3R)-3-[4-amino-3-(4-phenoxyphenyl)-1H-pyrazolo[3,4-d]pyrimidin-1-yl]piperidin-1-yl]prop-2-en-1-one] | 6.1 | < 20 | affects | significant loss of function; also recorded: affects | strong, negative effect; also recorded: strongly affects | strongly inhibits | profound inhibition | No maximum tolerated dose (MTD) was apparent | strongly increases | increase | significantly inhibits | 130
C=CC(=O)Nc1cccc(Nc2nc(Nc3ccc(OCCOC)cc3)ncc2F)c1 [Formula (17), N-(3-((5-fluoro-2-((4-(2-methoxyethoxy)phenyl)amino)pyrimidin-4-yl)amino)phenyl)acrylamide] | 121 |  |  |  |  |  |  |  |  |  |  | 
